Tests used:
[1] = target: T1, recombinant Aurora A (Homo sapiens, UniProt O14965); experiment: Aurora A (Aurora 2) inhibition assay, Z'-Lyte kinase assay; type: biochemical; details: ATP 10 μM, 1 h
T1 construct: purchased Upstate, Lake Placid, N.Y
T1 sequence (O14965 1-403): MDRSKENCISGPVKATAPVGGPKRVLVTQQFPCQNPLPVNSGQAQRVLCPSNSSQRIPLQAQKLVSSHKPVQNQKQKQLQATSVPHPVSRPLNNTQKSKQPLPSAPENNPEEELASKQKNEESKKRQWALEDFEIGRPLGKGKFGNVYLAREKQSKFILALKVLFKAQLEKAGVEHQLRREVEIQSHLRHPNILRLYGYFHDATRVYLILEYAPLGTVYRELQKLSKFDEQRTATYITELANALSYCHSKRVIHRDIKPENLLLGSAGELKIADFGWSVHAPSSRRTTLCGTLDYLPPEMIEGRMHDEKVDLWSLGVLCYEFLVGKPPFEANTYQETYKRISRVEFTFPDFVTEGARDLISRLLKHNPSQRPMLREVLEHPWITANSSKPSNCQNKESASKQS
In short: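 Z'-Lyte FRET assay: Aurora A (200-500 ng/mL final), Ser/Thr 1 peptide (2 μM) and ATP (10 μM) in 50 mM HEPES pH 7.5, 10 mM MgCl2, 5 mM EGTA, 0.05% Brij-35, 2 mM DTT, 1 h at room temperature. Coumarin/fluorescein emission ratio converted to percent phosphorylation; dose-response curves plotted.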

[2] = target: T2, N-terminal His-tagged human Src (Homo sapiens, UniProt P12931); experiment: Src kinase inhibition assay (33P-ATP filter assay); type: biochemical
T2 construct: His (N); purchased Upstate USA Inc, 706 Forest Street, Charlottesville, Va
T2 sequence (P12931 whole entry): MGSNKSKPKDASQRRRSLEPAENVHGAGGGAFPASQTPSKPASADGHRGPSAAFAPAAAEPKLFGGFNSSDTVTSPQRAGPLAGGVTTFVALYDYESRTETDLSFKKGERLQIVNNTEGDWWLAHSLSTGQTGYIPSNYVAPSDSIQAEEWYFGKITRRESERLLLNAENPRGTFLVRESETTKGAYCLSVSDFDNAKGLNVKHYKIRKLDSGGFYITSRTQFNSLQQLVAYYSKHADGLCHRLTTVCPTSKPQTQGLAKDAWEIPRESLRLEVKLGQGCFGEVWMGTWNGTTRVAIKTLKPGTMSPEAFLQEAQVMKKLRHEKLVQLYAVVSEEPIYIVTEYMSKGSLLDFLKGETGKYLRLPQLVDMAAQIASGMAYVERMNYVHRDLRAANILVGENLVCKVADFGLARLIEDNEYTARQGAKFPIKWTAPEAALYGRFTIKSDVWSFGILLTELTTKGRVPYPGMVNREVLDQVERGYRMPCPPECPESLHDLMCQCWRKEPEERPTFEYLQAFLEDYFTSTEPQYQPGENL

[3] = group with IC50 greater than 100 nM

Structure (SMILES)	IC50 [1] [nM]	IC50 ([2]; 40 minutes at room temperature) [nM]	IC50 [2, 3] [nM]	IC50 [1, 3] [nM]
COCCN(C)c1cc(Nc2cc(C)[nH]n2)nc(-c2cccc(N(C)C)c2)n1 [Compound 119, 2-(3-(dimethylamino)phenyl)-N^4-(2-methoxyethyl)-N^4-methyl-N^6-(5-methyl-1H-pyrazol-3-yl)pyrimidine-4,6-diamine]	≤ 100	≤ 100	–	–
Cc1cc(Nc2cc(NC3CCOCC3)nc(-c3ccc4c(c3)OCO4)n2)n[nH]1 [Example 132, 2-(benzo[d][1,3]dioxol-5-yl)-N^4-(5-methyl-1H-pyrazol-3-yl)-N^6-(tetrahydro-2H-pyran-4-yl)pyrimidine-4,6-diamine]	≤ 100	≤ 100	–	–
COCCN(C)c1cc(Nc2cc(C)[nH]n2)nc(-c2ccc3c(c2)OCO3)n1 [Example 153, 2-(benzo[d][1,3]dioxol-5-yl)-N^4-(2-methoxyethyl)-N^4-methyl-N^6-(5-methyl-1H-pyrazol-3-yl)pyrimidine-4,6-diamine]	≤ 100	–	≤ 1000	–
Cc1cc(Nc2cc(NC3CCOCC3)nc(-c3ccc(-c4ccccc4)cc3)n2)n[nH]1 [Example 158, 2-(biphenyl-4-yl)-N^4-(5-methyl-1H-pyrazol-3-yl)-N^6-(tetrahydro-2H-pyran-4-yl)pyrimidine-4,6-diamine]	–	–	≤ 1000	≤ 1000
Cc1cc(Nc2cc(NC3CCOCC3)nc(-c3cccc(-c4ccccc4)c3)n2)n[nH]1 [Example 159, 2-(biphenyl-3-yl)-N^4-(5-methyl-1H-pyrazol-3-yl)-N^6-(tetrahydro-2H-pyran-4-yl)pyrimidine-4,6-diamine]	≤ 100	–	≤ 1000	–
COCCN(C)c1cc(Nc2cc(C)[nH]n2)nc(-c2ccccc2)n1 [Example 171, N^4-(2-methoxyethyl)-N^4-methyl-N^6-(5-methyl-1H-pyrazol-3-yl)-2-phenyl pyrimidine-4,6-diamine]	≤ 100	–	≤ 1000	–
CCc1ccccc1-c1nc(Nc2cc(C)[nH]n2)cc(NC2CCOCC2)n1 [Example 174, 2-(2-ethylphenyl)-N^4-(5-methyl-1H-pyrazol-3-yl)-N^6-(tetrahydro-2H-pyran-4-yl)pyrimidine-4,6-diamine]	–	–	≤ 1000	≤ 1000
Cc1cc(Nc2cc(N3CCN(C)CC3)nc(-c3ccc4c(c3)OC(F)(F)O4)n2)n[nH]1 [Example 178, 2-(2,2-difluorobezo[d][1,3]dioxol-5-yl)-N-(5-methyl-1H-pyrazol-3-yl)-6-(4-methylpiperazin-1-yl)pyrimidin-4-amine]	–	≤ 100	–	≤ 1000
COCCN(C)c1cc(Nc2cc(C)[nH]n2)nc(-c2cc(F)ccc2F)n1 [Example 184, 2-(2,5-difluorophenyl)-N^4-(2-methoxyethyl)-N^4-methyl-N^6-(5-methyl-1H-pyrazol-3-yl)pyrimidine-4,6-diamine]	–	–	≤ 1000	≤ 1000
Cc1cc(Nc2cc(NC3CCOCC3)nc(-c3cc(F)ccc3F)n2)n[nH]1 [Example 185, 2-(2,5-difluorophenyl)-N^4-(5-methyl-1H-pyrazol-3-yl)-N^6-(tetrahydro-2H-pyran-4-yl)pyrimidine-4,6-diamine]	≤ 100	–	≤ 1000	–
Cc1cc(Nc2cc(N3CCN(C)CC3)nc(-c3cccc(OCc4ccccc4)c3)n2)n[nH]1 [Example 188, 2-(3-(benzyloxy)phenyl)-N-(5-methyl-1H-pyrazol-3-yl)-6-(4-methylpiperazin-1-yl)pyrimidin-4-amine]	≤ 100	–	≤ 1000	–
Cc1cc(Nc2cc(N3CCN(C)CC3)nc(-c3cccc(OC(F)(F)F)c3)n2)n[nH]1 [Example 192, N-(5-methyl-1H-pyrazol-3-yl)-6-(4-methylpiperazin-1-yl)-2-(3-(trifluoromethoxy)phenyl)pyrimidin-4-amine]	≤ 100	≤ 100	–	–
Cc1cc(Nc2cc(N3CCN(C)CC3)nc(-c3cccc(F)c3F)n2)n[nH]1 [Example 200]	–	≤ 100	–	≤ 1000

Results, then the compound that gave them:

IC50 [1] [nM]	IC50 ([2]; 40 minutes at room temperature) [nM]	IC50 [2, 3] [nM]	IC50 [1, 3] [nM]	Structure (SMILES)
≤ 100	≤ 100	–	–	Cc1cc(Nc2cc(N3CCN(C)CC3)nc(-c3ccc(N(C)C)cc3)n2)n[nH]1 [Compound 85, 2-(4-(dimethylamino)prenyl)-N-(b-methyl-1H-pyrazol-3-yl)-6-(4-methylpiperazin-1-yl)pyrimidin-4-amine]
≤ 100	≤ 100	–	–	Cc1cc(Nc2cc(N3CCN(C)CC3)nc(-c3cccc(N(C)C)c3)n2)n[nH]1 [Compound 86, 2-(3-(dimethylamino)phenyl)-N-(5-methyl-1H-pyrazol-3-yl)-b-(4-methylpiperazin-1-yl)pyrimidin-4-amine]
≤ 100	≤ 100	–	–	Cc1cc(Nc2cc(N3CCN(C)CC3)nc(-c3cccnc3)n2)n[nH]1 [Compound 89, N-(5-methyl-1H-pyrazol-3-yl)-6-(4-methylpiperazin-1-yl)-2-(pyridin-3-yl)pyrimidin-4-amine]
≤ 100	–	≤ 1000	–	Cc1cc(Nc2cc(N3CCN(C)CC3)nc(-c3cccc(C(F)(F)F)c3)n2)n[nH]1 [Compound 101, N-(5-methyl-1H-pyrazol-3-yl)-6-(4-methylpiperazin-1-yl)-2-(3-(trifluoromethyl)phenyl)pyrimidin-4-amine]
≤ 100	≤ 100	–	–	Cc1cc(Nc2cc(N3CCN(C)CC3)nc(-c3cccc4ccccc34)n2)n[nH]1 [Example 134, N-(5-methyl-1H-pyrazol-3-yl)-6-(4-methylpiperazin-1-yl)-2-(naphthalen-1-yl)pyrimidin-4-amine]
≤ 100	≤ 100	–	–	Cc1cc(Nc2cc(N3CCN(C)CC3)nc(-c3ccc4ccccc4c3)n2)n[nH]1 [Example 135, N-(5-methyl-1H-pyrazol-3-yl)-6-(4-methylpiperazin-1-yl)-2-(naphthalen-2-yl)pyrimidin-4-amine]
≤ 100	≤ 100	–	–	Cc1cc(Nc2cc(N3CCN(C)CC3)nc(-c3cc4cc(NS(=O)(=O)C5CC5)ccc4o3)n2)n[nH]1 [Example 155, N-(2-(4-(5-methyl-1H-pyrazol-3-ylamino)-6-(4-methylpiperazin-1-yl)pyrimidin-2-yl)benzofuran-5-yl)cyclopropanesulfonamide]
≤ 100	≤ 100	–	–	Cc1cc(Nc2cc(NC3CCOCC3)nc(-c3cc4cc(NS(=O)(=O)C5CC5)ccc4o3)n2)n[nH]1 [Example 156, N-(2-(4-(5-methyl-1H-pyrazol-3-ylamino)-6-(tetrahydro-2H-pyran-4-ylamino)pyrimidin-2-yl)benzofuran-5-yl)cyclopropanesulfonamide]
–	≤ 100	–	≤ 1000	Cc1cc(Nc2cc(N3CCN(C)CC3)nc(-c3ccc(C#N)cc3)n2)n[nH]1 [Example 160, 4-(4-(5-methyl-1H-pyrazol-3-ylamino)-6-(4-methylpiperazin-1-yl)pyrimidin-2-yl)benzonitrile]
–	≤ 100	–	≤ 1000	Cc1cc(Nc2cc(N3CCN(C)CC3)nc(-c3ccc([N+](=O)[O-])cc3)n2)n[nH]1 [Example 164, N-(5-methyl-1H-pyrazol-3-yl)-6-(4-methylpiperazin-1-yl)-2-(4-nitrophenyl)pyrimidin-4-amine]
≤ 100	≤ 100	–	–	Cc1cc(Nc2cc(N3CCN(C)CC3)nc(-c3ccc(F)c(F)c3)n2)n[nH]1 [Example 168, 2-(3,4-difluorophenyl)-N-(5-methyl-1H-pyrazol-3-yl)-6-(4-methylpiperazin-1-yl)pyrimidin-4-amine]
≤ 100	–	≤ 1000	–	Cc1cc(C)cc(-c2nc(Nc3cc(C)[nH]n3)cc(N3CCN(C)CC3)n2)c1 [Example 169, 2-(3,5-dimethylphenyl)-N-(5-methyl-1H-pyrazol-3-yl)-6-(4-methylpiperazin-1-yl)pyrimidin-4-amine]
–	–	≤ 1000	≤ 1000	CCc1ccccc1-c1nc(Nc2cc(C)[nH]n2)cc(N2CCN(C)CC2)n1 [Example 175, 2-(2-ethylphenyl)-N-(5-methyl-1H-pyrazol-3-yl)-6-(4-methylpiperazin-1-yl)pyrimidin-4-amine]
–	–	≤ 1000	≤ 1000	Cc1cc(Nc2cc(N3CCN(C)CC3)nc(-c3cccc(C)c3C)n2)n[nH]1 [Example 179, 2-(2,3-dimethylphenyl)-N-(5-methyl-1H-pyrazol-3-yl)-6-(4-methylpiperazin-1-yl)pyrimidin-4-amine]
≤ 100	≤ 100	–	–	Cc1ccc(F)c(-c2nc(Nc3cc(C)[nH]n3)cc(N3CCN(C)CC3)n2)c1 [Example 193, 2-(2-fluoro-5-methylphenyl)-N-(5-methyl-1H-pyrazol-3-yl)-6-(4-methylpiperazin-1-yl)pyrimidin-4-amine]
–	≤ 100	–	≤ 1000	Cc1cc(Nc2cc(N3CCN(C)CC3)nc(-c3cc(F)ccc3C)n2)n[nH]1 [Example 196, 2-(5-fluoro-2-methylphenyl)-N-(5-methyl-1H-pyrazol-3-yl)-6-(4-methylpiperazin-1-yl)pyrimidin-4-amine]
≤ 100	≤ 100	–	–	COc1ccc(F)c(-c2nc(Nc3cc(C)[nH]n3)cc(N3CCN(C)CC3)n2)c1 [Example 197, 2-(2-fluoro-5-methoxyphenyl)-N-(5-methyl-1H-pyrazol-3-yl)-6-(4-methylpiperazin-1-yl)pyrimidin-4-amine]

— patent publication US20090029992A1, “SUBSTITUTED PYRAZOLE COMPOUNDS” (priority 2007, published 2009)
